Laboratory results reported in patent US11466028B2, “Fused 1,4-oxazepines as BET protein degraders” (THE REGENTS OF THE UNIVERSITY OF MICHIGAN, priority 2016, dated 2022).
Read-outs that look alike come from different tables or passages of the source.

How the values were obtained:
[1] = system: RS4;11 xenograph tumors; experiment: RS4;11 xenograft model; type: in vivo, SCID mice; settings: SCID mice
Protocol: Cpd. Nos. 7 and 11 were dissolved in 10% PCP [10% PEG400 (Sigma), 3% Cremophor (Sigma), and 87% PBS (Gibco)]. The pH of the drug solutions were checked before use and adjusted with 0.5N NaOH to be between pH 6.5 and 8.0 for IV (intravenous) administration.
RS4;11 cells were maintained at 37° C., 95% air, 5% carbon dioxide in Improved MEM (Richter's Mod.) supplemented with 10% Fetal Bovine Serum, 100 units/ml of penicillin and 100 units/ml of streptomycin (GIBCO™, Invitrogen Corp.) and passaged twice weekly.
Tumor cells for xenografts were harvested with Trypsin (0.05%)-EDTA (0.53 mM) (GIBCO™, Invitrogen Corp.), growth medium added and cells placed on ice. Cells were washed once with 1×PBS (GIBCO™, Invitrogen Corp.) and re-suspended in PBS. After washing in PBS, cells were re-suspended in an ice cold mixture of 1:1 PBS and Matrigel (BD Biosciences, Invitrogen Corp.) for a final Matrigel protein concentration of 5 mg/ml. Cells at 5×10^6 cells in 0.1 ml were injected subcutaneously (s.c.) into the flank region of each mouse using a 25 gauge needle. All tumors were inoculated into SCID mice (strain:236) C.B-17 SCID, Charles River.
The size of tumors growing in the mice was measured in two dimensions using calipers. Tumor volume (mm^3)═(A×B^2)/2 where A and B are the tumor length and width (in mm), respectively. During treatment, tumor volume and body weight were measured three times a week. After the treatment was stopped, tumor volume and body weight was measured at least once a week.
Tumors were not allowed to exceed 10% of the animals total body weight. If an animal had two or more tumors the total weight of all tumors were not allowed to exceed 10% of the animal's total body weight. At the end of the experimental period or when tumor size approached 10% of the total body weight, the animal was euthanized.
Before treatment began, tumors were allowed to grow to 100-200 mm^3 in volume, at which point the blood vessel supplies to the tumor should have been well established. Mice with tumors within acceptable size range were randomized into treatment groups of seven mice. Cpd. Nos. 7 and 11 were given i.v. at 10 mg/kg at days 1,3, and 5 per week for two weeks. The Control group received vehicle alone. Cpd. Nos. 16, 18, 22 and 48 were given i.v. at 5 mg/kg at days 1, 3, and 5 per week for two weeks. The Control group received vehicle alone.
(§1) Representative Compounds of the Disclosure were tested in the RS4;11 and other xenograph models using similar techniques. […] No. 22 in the MDA-MB-231 TNBC model.

[2] = system: MOLM-13; experiment: CellTiter-Glo cell growth inhibition, MOLM-13; type: cell-based; settings: Homo sapiens
Protocol: (§2) Cell growth inhibitory activity of representative Compounds of the Disclosure was determined using the CellTiter-Glo® Luminescent Cell Viability Assay. Cells were seeded in 384-well white opaque cell culture plates at a density of 2,000 cells/well with serially diluted compounds and incubated at 37° C. in an atmosphere of 95% air and 5% CO2 for 4 days. Cell viability was determined using the CellTiter-Glo® Luminescent Cell Viability Assay Kit (Promega, Madison, Wis.) according to the manufacture's instruction. Briefly, a volume of CellTiter-Glo® Reagent equal to the volume of cell culture medium was added to each well, and then the plates were incubated at room temperature for 10-20 minutes. The luminescent signal was measured using a Tecan Infinite M1000 multimode microplate reader (Tecan, Morrisville, N.C.). The half maximal inhibitory concentration (IC50) was calculated using the GraphPad Prism 5 software (GraphPad Software, La Jolla, Calif.).
(§3) Cpd. Nos. 18 and 19 were tested in various leukemia cell lines using the CellTiter-Glo® Luminescent Cell Viability Assay as described in Example 35.

[3] = system: MDA-MB-231; experiment: CellTiter-Glo cell growth inhibition, MDA-MB-231; type: cell-based; settings: Homo sapiens, MDA-MB-231, 96 h, 4 days, Table 4
Protocol: as §2

[4] = target: T1, BRD2 (Homo sapiens, UniProt P25440); experiment: Western blot, degradation of BRD2 in RS4;11 cells; type: cell-based; settings: 2.5 h, as compared to Compound A, FIG. 1
T1 construct: endogenous in cells; host or cells: RS4;11 and MOLM-13 leukemia cells
Protocol: (§4) Cells were treated with compounds at the indicated concentrations for 2.5 h and 3 h, respectively, for RS4;11 (see FIG. 1) and MOLM-13 (see FIG. 2) cells. Compound A is ((S)-3-benzyl-6,9-dimethyl-2-((1-methyl-1H-pyrazol-4-yl)ethynyl)-4H,6H-thieno[2,3-e][1,2,4]triazolo[3,4-c][1,4]oxazepine). See Cpd. No. 85 of U.S. Appl. No. 62/295,271.
(§5) Collected cells were lysed in lysis buffer [1% CHAPS, 150 mM NaCl, 20 mM Tris-HCl, 1 mM. EDTA, 1 mM EGTA, and COMPLETE proteinase inhibitor (Roche)] for 30 minutes on ice. Protein concentrations were determined using the Bio-Rad Protein Assay Dye reagent. Whole tumor lysates (20 μg) were separated on a 4-20% Novex gels (Invitrogen). The separated proteins were transferred to a PVDF membrane (BIO-RAD) and the PVDF membrane was then blotted with 5% Blotting-Grade Blocker (BIO-RAD) for 1 hour at room temperature. The primary antibodies used were BRD4 rabbit polyclonal antibody [Bethyl Laboratories, Inc, cat #A301] and BRD2 antibody.
(§6) The BIO-RAD Clarity Western ECL Substrates (BIO-RAD) and HyBlot CL film (Denville) were used for signal development and detection using a SRX-101A tabletop processor (Konica Minolta).

[5] = target: T2, BRD4 (Homo sapiens, UniProt O60885); experiment: Western blot, degradation of BRD4 in MOLM-13 cells; type: cell-based; settings: 3 h, as compared to Compound A, FIG. 2
T2 construct: Collected cells were lysed in lysis buffer; endogenous in cells; host or cells: RS4;11 and MOLM-13 leukemia cells
Protocol: as §4, §5, §6

[6] = system: KG1; experiment: CellTiter-Glo cell viability, KG1 leukemia cell line; type: cell-based; settings: Homo sapiens, KG-1, Table 5
Protocol: as §2, §3

[7] = target: T1, BRD2; experiment: Western blot, degradation of BRD2 in MOLM-13 cells; type: cell-based; settings: 3 h, as compared to Compound A, FIG. 2
Protocol: as §4, §5, §6

[8] = system: AML5; experiment: CellTiter-Glo cell viability, AML5 leukemia cell line; type: cell-based; settings: Table 5
Protocol: as §2, §3

[9] = system: AML3; experiment: CellTiter-Glo cell viability, AML3 leukemia cell line; type: cell-based; settings: Table 5
Protocol: as §2, §3

[10] = target: T2, BRD4; experiment: Western blot, degradation of BRD4 in RS4;11 cells; type: cell-based; settings: 2.5 h, as compared to Compound A, FIG. 1
Protocol: as §4, §5, §6

[11] = system: MV4; 11; experiment: CellTiter-Glo cell viability, MV4;11 leukemia cell line; type: cell-based; settings: Homo sapiens, Table 5
Protocol: as §2, §3

[12] = system: HL60; experiment: CellTiter-Glo cell viability, HL60 leukemia cell line; type: cell-based; settings: Homo sapiens, HL-60, Table 5
Protocol: as §2, §3

[13] = system: MOLM16; experiment: CellTiter-Glo cell viability, MOLM16 leukemia cell line; type: cell-based; settings: Table 5
Protocol: as §2, §3

[14] = system: RS4;11; experiment: CellTiter-Glo cell growth inhibition, RS4;11; type: cell-based; settings: Homo sapiens
Protocol: as §2, §3

[15] = system: MonoMac6; experiment: CellTiter-Glo cell viability, MonoMac6 leukemia cell line; type: cell-based; settings: Homo sapiens, MONO-MAC-6, Table 5
Protocol: as §2, §3

[16] = system: MV4;11 xenograph; experiment: MV4;11 xenograph model; type: in vivo; settings: FIG. 9
Protocol: as §1

[17] = MOLM-13, 96 h, 4 days, Table 4, read-out: MOLM-13 IC50
[18] = RS4-11, 96 h, 4 days, Table 4, read-out: RS-4, 11 IC50
[19] = i.v. 5 mg/kg at days 1, 3, 5 per week for two weeks, FIG. 4

T1 sequence (P25440 whole entry): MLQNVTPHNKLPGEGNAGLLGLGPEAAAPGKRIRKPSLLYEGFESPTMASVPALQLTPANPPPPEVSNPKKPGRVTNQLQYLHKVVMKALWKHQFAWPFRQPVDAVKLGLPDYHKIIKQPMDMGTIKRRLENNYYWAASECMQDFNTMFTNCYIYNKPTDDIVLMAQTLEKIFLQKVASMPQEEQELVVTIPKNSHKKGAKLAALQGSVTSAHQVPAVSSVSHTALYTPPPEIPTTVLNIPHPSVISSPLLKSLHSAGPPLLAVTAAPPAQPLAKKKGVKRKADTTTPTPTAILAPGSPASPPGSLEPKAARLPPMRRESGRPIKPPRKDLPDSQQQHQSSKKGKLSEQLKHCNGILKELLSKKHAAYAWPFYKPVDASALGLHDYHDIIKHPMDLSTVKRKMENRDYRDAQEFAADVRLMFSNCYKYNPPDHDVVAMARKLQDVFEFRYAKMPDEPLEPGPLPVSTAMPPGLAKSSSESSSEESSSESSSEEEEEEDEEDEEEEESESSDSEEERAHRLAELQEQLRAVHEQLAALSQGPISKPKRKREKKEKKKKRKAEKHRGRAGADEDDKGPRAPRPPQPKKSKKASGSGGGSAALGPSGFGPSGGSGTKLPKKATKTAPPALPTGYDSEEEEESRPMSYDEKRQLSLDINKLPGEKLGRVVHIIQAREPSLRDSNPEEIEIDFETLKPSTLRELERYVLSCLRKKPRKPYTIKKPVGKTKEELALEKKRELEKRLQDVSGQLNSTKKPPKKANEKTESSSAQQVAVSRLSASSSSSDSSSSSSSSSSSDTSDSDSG

Cc1nnc2n1-c1sc(C#Cc3cnn(CCCCNc4cccc5c4CN(C4CCC(=O)NC4=O)C5=O)c3)c(Cc3ccccc3)c1CO[C@H]2C (stereo partly drawn) [Cpd. No. 11, 3-(4-((4-(4-(((S)-3-benzyl-6,9-dimethyl-4H,6H-thieno[2,3-e][1,2,4]triazolo[3,4-c][1,4]oxazepin-2-yl)ethynyl)-1H-pyrazol-1-yl)butyl)amino)-1-oxoisoindolin-2-yl) piperidine-2,6-dione]
tumor regression in RS4;11 xenograph tumors ([1]; i.v. 10 mg/kg at days 1, 3, 5 per week for two weeks, FIG. 3): induce tumor regression
IC50 [2, 17]: 0.4 nM
IC50 [3]: 2.3 nM

Cc1nnc2n1-c1sc(C#Cc3cnn(CCCCCc4cccc5c4CN(C4CCC(=O)NC4=O)C5=O)c3)c(Cc3ccccc3)c1CO[C@H]2C (stereo partly drawn) [Cpd. No. 19, 3-(4-(5-(4-(((S)-3-benzyl-6,9-dimethyl-4H,6H-thieno[2,3-e][1,2,4]triazolo[3,4-c][1,4]oxazepin-2-yl)ethynyl)-1H-pyrazol-1-yl)pentyl)-1-oxoisoindolin-2-yl) piperidine-2,6-dione]
degradation of BRD2 protein (Western blot) [4]: induce degradation
degradation of BRD4 protein (Western blot) [5]: induce degradation
IC50 [6]: 3.99 ± 0.18 nM
degradation of BRD2 protein (Western blot) [7]: induce degradation
IC50 [8]: 0.84 ± 0.14 nM
IC50 [9]: 2.44 ± 0.22 nM
IC50 [2, 17]: 2.7 nM
IC50 ([2]; MOLM-13, Table 5, read-out: IC50 (nM) MOLM13): 7.6 nM
degradation of BRD4 protein (Western blot) [10]: induce degradation
IC50 [11]: 0.46 ± 0.1 nM
IC50 [12]: 0.97 ± 0.08 nM
IC50 [13]: 0.15 ± 0.06 nM
IC50 [14, 18]: 0.06 nM
IC50 ([14]; RS4-11, Table 5, read-out: IC50 (nM) RS4, 11): 0.8 ± 0.1 nM
IC50 [3]: 12 nM
IC50 [15]: 1.8 ± 0.3 nM

Cc1nnc2n1-c1sc(C#Cc3cnn(CCCCOc4cccc5c4CN(C4CCC(=O)NC4=O)C5=O)c3)c(Cc3ccccc3)c1COC2 (centres unmarked) [compound 65, 3-(4-(4-(4-((3-benzyl-9-methyl-4H,6H-thieno[2,3-e][1,2,4]triazolo[3,4-c][1,4]oxazepin-2-yl)ethynyl)-1H-pyrazol-1-yl)butoxy)-1-oxoisoindolin-2-yl)piperidine-2,6-dione]
tumor regression in the MV4;11 xenograph model [16]: induce tumor regression

Cc1nnc2n1-c1sc(C#Cc3cnn(CCCCNc4cccc5c4C(=O)N(C4CCC(=O)NC4=O)C5=O)c3)c(Cc3ccccc3)c1COC2 (centres unmarked) [Cpd. No. 16, 4-((4-(4-((3-benzyl-9-methyl-4H,6H-thieno[2,3-e][1,2,4]triazolo[3,4-c][1,4]oxazepin-2-yl)ethynyl)-1H-pyrazol-1-yl)butyl)amino)-2-(2,6-dioxopiperidin-3-yl) isoindoline-1,3-dione]
tumor regression in RS4;11 xenograph tumors [1, 19]: induce tumor regression
IC50 [2, 17]: 0.9 nM
IC50 [14, 18]: 0.1 nM
IC50 [3]: 0.29 nM

Cc1nnc2n1-c1sc(C#Cc3cnn(CCCCNc4cccc5c4CN(C4CCC(=O)NC4=O)C5=O)c3)c(Cc3ccccc3)c1COC2 (centres unmarked) [Cpd. No. 17, 3-(4-((4-(4-((3-benzyl-9-methyl-4H,6H-thieno[2,3-e][1,2,4]triazolo[3,4-c][1,4]oxazepin-2-yl)ethynyl)-1H-pyrazol-1-yl)butyl)amino)-1-oxoisoindolin-2-yl) piperidine-2,6-dione]
IC50 [2, 17]: 0.5 nM
tumor regression in the MV4;11 xenograph model [16]: induce tumor regression
IC50 [14, 18]: 0.06 nM
IC50 [3]: 0.21 nM

Cc1nnc2n1-c1sc(C#Cc3cnc(CCCC#Cc4cccc5c4C(=O)N(C4CCC(=O)NC4=O)C5=O)[nH]3)c(Cc3ccccc3)c1CO[C@H]2C (stereo partly drawn) [Cpd. No. 12, 4-(5-(5-(((S)-3-benzyl-6,9-dimethyl-4H,6H-thieno[2,3-e][1,2,4]triazolo[3,4-c][1,4]oxazepin-2-yl)ethynyl)-1H-imidazol-2-yl)pent-1-yn-1-yl)-2-(2,6-dioxopiperidin-3-yl)isoindoline-1,3-dione]
IC50 [2, 17]: > 1000 nM
IC50 [14, 18]: > 1000 nM
IC50 [3]: > 1000 nM

Cc1nnc2n1-c1sc(C#Cc3cnn(CCCCCc4cccc5c4CN(C4CCC(=O)NC4=O)C5=O)c3)c(Cc3ccccc3)c1COC2 (centres unmarked) [Cpd. No. 48, 3-(4-(5-(4-((3-benzyl-9-methyl-4H,6H-thieno[2,3-e][1,2,4]triazolo[3,4-c][1,4]oxazepin-2-yl)ethynyl)-1H-pyrazol-1-yl)pentyl)-1-oxoisoindolin-2-yl) piperidine-2,6-dione]
tumor regression in RS4;11 xenograph tumors [1, 19]: induce tumor regression
IC50 [2, 17]: 1.7 nM
IC50 [14, 18]: 0.22 nM
IC50 [3]: 0.33 nM
